Patent US20010020013A1, “Ortho-diphenol compounds, methods and pharmaceutical compositions for inhibiting parp” (GUILFORD PHARMACEUTICALS, INC., priority 1998, published 2001)

Key:
C57/BL male mice = test: Septic shock assay (LPS plus galactosamine challenge), mortality; type: in vivo, mouse; conditions: 60, 20, 6 and 2 mg/kg daily IP for three days, first dose 30 min after challenge
Description: Groups of 10 C57/BL male mice weighing 18 to 20 g were administered a test compound, 1-carboxynaphthalene-1-carboxamide at the doses of 60, 20, 6 and 2 mg/kg, daily, by intraperitopeal (IP) injection for three consecutive days. Each animal was first challenged with lipopolysaccharide (LPS, from E. Coli, LD100 of […] IV) plus galactosamine (20 mg/animal IV). The first dose of test compound in a suitable vehicle was given 30 minutes after challenge, and the second and third doses were given 24 hours later on day 2 and day 3 respectively, with only the surviving animals receiving the second or third dose of the test compound. Mortality was recorded every 12 hours after challenge for the three-day testing period. 1-Carboxy-naphthalene-1-carboxamide provided a protection against mortality from septic shock of about 40%.

[1] = tested on: human fibroblast cells lines (W138 or BJ cells); test: Extending proliferative capacity and lifespan of cells; type: cell-based; conditions: untreated cells stop dividing after about 40 days
Description: At the time of subdivision, the media is aspirated, and the cells rinsed with phosphate buffer saline (PBS) and then trypsinized. The cells are counted with a Coulter counter and plated at a density of 10^5 cells per cm^2 in 6-well tissue culture plates in DMEM/199 medium supplemented with 10% bovine calf serum and varying amounts ([…]: from a 100X stock solution in DMEM/M199 medium) of a PARP inhibitor of Formula I as disclosed herein. This process is repeated every 7 days until the cell appear to stop dividing. The untreated (control) cells reach senescence and stop dividing after about 40 days in culture.

male Long-Evans rats = test: Neuroprotective effect of DPQ on focal cerebral ischemia (distal MCA cauterization plus bilateral CCA occlusion), TTC infarct area and volume; type: in vivo, rat
Description: Focal cerebral ischemia was produced by cauterization of the right distal MCA (middle cerebral artery) with bilateral temporary common carotid artery occlusion in male Long-Evans rats for 90 minutes. All procedures performed on the animals were approved by the University Institutional Animal Care and Use Committee of the University of Pennsylvania. A total of 42 rats (weights: 230-340 g) obtained from Charles River were used in this study. The animals fasted overnight with free access to water prior to the surgical procedure.
Two hours prior to MCA occlusion, varying amounts (control, n=14; 5 mg/kg, n=7; 10 mg/kg, n=7; 20 mg/kg, n=7; and 40 mg/kg, n=7) of the compound, 3,4-dihydro-5-[4-(1-piperidinyl)-butoxy]-1 (2H)-isoquinolinone (“DPQ”) were dissolved in dimethyl sulfoxide (DMSO) using a sonicator. A volume of 1.28 ml/kg of the resulting solution was injected intraperitoneally into fourteen rats.
Focal cerebral ischemia was produced by cauterization of the distal portion of the right MCA with bilateral temporary common carotid artery (CCA) occlusion by the procedure of Chen et al., “A Model of Focal Ischemic Stroke in the Rat: Reproducible Extensive Cortical Infarction”, Stroke 17:738-43 (1986) and/or Liu et al., “Polyethylene Glycol-conjugated Superoxide Dismutase and Catalase Reduce Ischemic Brain Injury”, Am. J. Physiol. 256:H589-93 (1989), both of which are hereby incorporated by reference. […]
Two hours after MCA occlusion, the animals were given the same doses of the PARP inhibitor as in the pre-treatment. […] To avoid artifacts due to edema, the damaged area was calculated by subtracting the area of the normal tissue in the hemisphere ipsilateral to the stroke from the area of the hemisphere contralateral to the stroke, by the method of Swanson et al., “A Semiautomated Method for Measuring Brain Infarct Volume”, J. Cereb. […] The total volume of infarction was calculated by summation of the damaged volume of the brain slices.

Structure (SMILES): NC(=O)C1(C(=O)O)CC=Cc2ccccc21 (stereo not shown) [1-Carboxy-naphthalene-1-carboxamide, 1-carboxynaphthalene-1-carboxamide]
- protection against mortality from septic shock (C57/BL male mice): about 40%

Structure (SMILES): NC(=O)c1cccc(N)c1 [3-amino-benzamide]
- effect on lifespan of the cells ([1]; 10 μM): little or no effect
- effect on lifespan of the cells ([1]; 100 μM): lengthen the lifespan of the cells
- time in culture at which cells still divide ([1]; 1 mM): still divide after 60 days

Structure (SMILES): O=C1NCCc2c(OCCCCN3CCCCC3)cccc21 [DPQ, 3,4-dihydro-5-[4-(1-piperidinyl)-butoxy]-1 (2H)-isoquinolinone]
- distribution of the cross-sectional infarct area (FIG. 1 curve) (male Long-Evans rats; 5 mg/kg): approximately halfway between the control and the 10 mg/kg curves
- distribution of the cross-sectional infarct area (FIG. 1 curve) (male Long-Evans rats; 20 mg/kg): approximately halfway between the control and the 10 mg/kg curves
- distribution of the cross-sectional infarct area (FIG. 1 curve) (male Long-Evans rats; 40 mg/kg): close to the control
